Several values for one entry are separate records, joined by “and”; a condition that tells them apart may be missing. Equal entries are not always repeated.
Key:
[1] = Liquid; for viscosity: Capillary tube (Ostwald / Ubbelohde) method
[2] = refractive index (Na D-line) (dimensionless); settings: 101.33 kPa, Liquid, Standard Abbe refractometry
[3] = refractive index (Na D-line) (dimensionless); xn = mol fraction of the nth substance listed; settings: 100.8 kPa, Liquid, Standard Abbe refractometry
[4] = xn = mol fraction of the nth substance listed; settings: Liquid; for viscosity: Capillary tube (Ostwald / Ubbelohde) method

CC(C)CC(C)(C)C [2,2,4-trimethylpentane]
[1], 100.8 kPa
Settings | mass density | viscosity [mPa·s]
288.15 K | 695.95 kg/m3 | 0.537
298.15 K | 687.74 kg/m3 | 0.48
308.15 K | 679.43 kg/m3 and 679.41 kg/m3 | 0.432

[2]
Settings | refractive index
288.15 K | 1.39404
298.15 K | 1.389
308.15 K | 1.38395

CC(C)CC(C)(C)C [2,2,4-trimethylpentane] + CC(C)OC(C)C
[3], x2 = 0
Settings | refractive index
288.15 K | 1.39404
298.15 K | 1.389
308.15 K | 1.38395

[4], 100.8 kPa, x2 = 0
Settings | mass density [kg/m3] | viscosity [mPa·s]
288.15 K | 695.95 | 0.537
298.15 K | 687.74 | 0.48
308.15 K | 679.43 | 0.432

CC(C)OC(C)C [diisopropyl ether]
[1]
Settings | mass density, 288.15 K [kg/m3] | mass density, 298.15 K [kg/m3] | mass density, 308.15 K [kg/m3] | viscosity, 288.15 K [mPa·s] | viscosity, 298.15 K [mPa·s] | viscosity, 308.15 K [mPa·s]
100.5 kPa | 729.09 | 718.7 | 708.12 | 0.348 | 0.313 | 0.283
100.8 kPa | 729.09 | 718.7 | 708.12 | 0.348 | 0.313 | 0.283

[2]
Settings | refractive index
288.15 K | 1.37093
298.15 K | 1.36524
308.15 K | 1.35944

CCO [ethanol]
[1]
Settings | mass density, 288.15 K [kg/m3] | mass density, 298.15 K [kg/m3] | mass density, 308.15 K [kg/m3] | viscosity, 288.15 K [mPa·s] | viscosity, 298.15 K [mPa·s] | viscosity, 308.15 K [mPa·s]
100.5 kPa | 793.74 | 785.17 | 776.49 | 1.309 | 1.084 | 0.905
100.8 kPa | 793.74 | 785.17 | 776.49 | 1.309 | 1.084 | 0.905

[2]
Settings | refractive index
288.15 K | 1.36342
298.15 K | 1.35924
308.15 K | 1.35502

CCO [ethanol] + CC(C)CC(C)(C)C
[3], x1 = 1
Settings | refractive index
288.15 K | 1.36342
298.15 K | 1.35924
308.15 K | 1.35502

[4], 100.8 kPa, x1 = 1
Settings | mass density [kg/m3] | viscosity [mPa·s]
288.15 K | 793.74 | 1.309
298.15 K | 785.17 | 1.084
308.15 K | 776.49 | 0.905

CCO [ethanol] + CC(C)OC(C)C
[3], x2 = 0
Settings | refractive index
288.15 K | 1.36342
298.15 K | 1.35924
308.15 K | 1.35502

[4], 100.5 kPa, x2 = 0
Settings | mass density [kg/m3] | viscosity [mPa·s]
288.15 K | 793.74 | 1.309
298.15 K | 785.17 | 1.084
308.15 K | 776.49 | 0.905
